IC50 data for 34 molecules are collected here from patent US20040106802A1, “Novel compounds and therapeutic uses thereof” (TORRENT PHARMACEUTICALS LTD., priority 2002, published 2004).

Each structure is given as a SMILES string. Counter-ions that a name gives are not always drawn.

In this assay the target is T1, Porcine DPP-IV (Sus scrofa, UniProt P22411).
T1 construct: purchased Sigma-Aldrich Germany
T1 sequence (P22411 whole entry): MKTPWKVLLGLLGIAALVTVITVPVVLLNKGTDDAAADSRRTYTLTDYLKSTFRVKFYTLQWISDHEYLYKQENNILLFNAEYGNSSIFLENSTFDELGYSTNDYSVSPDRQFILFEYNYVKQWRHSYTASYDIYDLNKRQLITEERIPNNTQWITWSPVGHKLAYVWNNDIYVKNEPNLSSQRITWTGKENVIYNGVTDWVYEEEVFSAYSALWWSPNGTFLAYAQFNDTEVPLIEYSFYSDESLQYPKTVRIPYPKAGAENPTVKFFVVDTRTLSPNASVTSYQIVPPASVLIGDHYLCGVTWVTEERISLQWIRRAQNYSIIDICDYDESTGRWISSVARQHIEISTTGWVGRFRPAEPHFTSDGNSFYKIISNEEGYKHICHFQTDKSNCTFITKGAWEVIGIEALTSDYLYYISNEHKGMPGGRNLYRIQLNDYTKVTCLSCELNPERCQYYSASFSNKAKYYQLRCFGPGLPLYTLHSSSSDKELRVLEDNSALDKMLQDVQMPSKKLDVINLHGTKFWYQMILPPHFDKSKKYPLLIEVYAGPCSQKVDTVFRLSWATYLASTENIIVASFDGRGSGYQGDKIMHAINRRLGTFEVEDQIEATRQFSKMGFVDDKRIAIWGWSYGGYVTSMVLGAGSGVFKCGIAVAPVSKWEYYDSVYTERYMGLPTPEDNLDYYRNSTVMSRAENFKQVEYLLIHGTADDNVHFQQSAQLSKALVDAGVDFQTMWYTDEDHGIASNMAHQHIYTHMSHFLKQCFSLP
Kind of assay: Assay of DPP-IV enzyme inhibitory activity (spectrophotometric, Gly-Pro-pNA cleavage). In kind it is biochemical. The conditions noted are these: Porcine DPP-IV, Gly-Pro-pNA substrate, 30° C.; mean ± SD of three experiments except compound Nos. 133 & 139; read-out: IC50 (μM) Mean ± SD, inhibitory activity on DPP-IV enzyme activity. On the procedure:
Assay of DPP-IV Enzyme Inhibitory Activity.
The assay method is a modified method (as described by Welch et al, 1998) based on spectrophotometric determination of the product formed by penultimate proline cleaving activity of the enzyme.
Assay protocol involves incubation of the enzyme dipeptidyl peptidase IV with the test substance at 30° C. for 30 min followed by addition of this reaction mixture to the substrate Gly-Pro-pNA that was equilibrated at 30° C. for 2 min. The enzyme cleaves the substrate at penultimate proline and releases p-nitroanilide, the optical density of which is measured at 385 nm. The formation of p-nitroanilide will be reduced in the presence of inhibitor. […] The activity of molecule is expressed in terms of % inhibition. At least three different concentrations were tried out for each of the test substances. The percentage inhibitions for each of the concentrations were plotted and an IC50 of the test compound was worked out. The enzyme inhibitory activity of different test compounds were compared based on the IC50 values.
The percentage inhibition % I, is calculated using the formula:
% I=[(1−vi/v0)]*100 where vi and v0 are the Vmax values with and without the test substance, respectively.
Substrate solution: 0.5 mM in 45 mM phosphate buffer
Substrate used: Gly-Pro-p-nitroanilide (Source: Sigma-Aldrich Co. Germany)
3.288 mg substrate in 1 ml 45 mM phosphate buffer was prepared as stock solution. 0.25 ml of this stock solution was diluted to 5 ml to get 0.5 mM substrate solution (90 μl to be added in each well). The stock solution of the substrate was used within three days of preparation.
Enzyme solution: Porcine DPP-IV (Sigma-Aldrich Germany) was used throughout the study. 0.4 mU in 80 μl of Tris. HCl buffer was prepared. Fresh solutions were prepared everyday for the assays.
Various concentrations of inhibitor were used: 0.391 μM, 0.781 μM, and 3.125 μM. Solutions of inhibitor were prepared and used on the same day.
280 μl of enzyme solution (0.4-mU/80 μl in Tris HCl buffer) was added to the eppendorf containing 70 μl solution of inhibitor or vehicle and mixed. This reaction mixture was incubated for 30 min at 30° C. The 96 well plate containing substrate solution was thermally equilibrated in the spectrophotometer for 2 min at 30° C. Later 100 μl of the enzyme-inhibitor pre-incubation solution was added to respective wells in a 96 well plate. Each concentration of the inhibitor was tested in triplicates.
The rate of change in UV absorbance (in presence of various concentrations of the inhibitor) was measured at 385 nm, with respect to wells containing only 0.5 mM substrate in 45 mM phosphate buffer as blank at every 10 min for 2 hours after adding enzyme-inhibitor mixture to wells containing substrate solution.
The IC50 is the point on the concentration scale where inhibition reaches its midpoint. `N#CC1CSCN1C(=O)CN(N)C1CCN(CC(=O)NC2CC2)CC1` (single isomer, unassigned) [compound 146, 3-[1-oxo-2-(1-(1-(2-cyclopropyl-1-yl)aminoethyl)piperidin-4-yl)) hydrazino]ethyl-4-cyano thiazolidine, dihydrochloride]: the IC50 amounted to 217 ± 9.07 µM.
The figure for `N#CC1CCCN1C(=O)CN(N)c1ccccc1` (stereo not shown) [Compound No. 3, 1-[1-Oxo-2-((1-phenyl)-hydrazino)] ethyl-2-cyano pyrrolidine trifluoroacetate] is 34.1 ± 4.57 µM; for `N#CC1CCCN1C(=O)CNN` (stereo not shown) [Compound No. 4, 1-[1-Oxo-2-(1-hydrazino)]ethyl-2-cyano pyrrolidine trifluoroacetate] it is 88.6 ± 18.1 µM; for `N#CC1CSCN1C(=O)CN(N)c1ccccc1` (stereo not shown) [Compound No. 9, 3-[1-Oxo-2-((1-phenyl)hydrazino)]ethyl-4-cyano Thiazolidine Trifluoroacetate] it is 6.18 ± 0.88 µM.
The figure for `CC(C)CN(N)CC(=O)N1CCCC1C#N` (stereo not shown) [Compound No. 10, 1-[1-Oxo-2-(1-(2-methylpropyl)hydrazino)]ethyl-2-cyano pyrrolidine trifluoroacetate] is 69.8 ± 17.5 µM; for `CC(C)N(N)CC(=O)N1CCCC1C#N` (stereo not shown) [Compound No. 12, 1-[1-Oxo-2-((1-(1-methyl)ethyl)hydrazino)]ethyl-2-cyano pyrrolidine trifluoroacetate] it is 61.3 ± 4.55 µM.
The figure for `CCN(CC)NCC(=O)N1CSCC1C#N` (stereo not shown) [Compound No. 13, 1-[1-Oxo-2-((2,2-diethyl)-hydrazino)]ethyl-2-cyano thiazolidine] is 57.1 ± 3.76 µM; for `CCN(N)CC(=O)N1CCCC1C#N` (stereo not shown) [Compound No. 14, 1-[1-Oxo-2-((1-ethyl)hydrazino)]ethyl-2-cyano pyrrolidine trifluoroacetate] it is 93.7 ± 5.54 µM; for `N#CC1CSCN1C(=O)CNN` (stereo not shown) [Compound No. 15, 3-[1-Oxo-2-(1-hydrazino)]ethyl-4-cyano thiazolidine trifluoroacetate] it is 41.9 ± 11.6 µM.
Regarding `N#CC1CSCN1C(=O)CN(N)Cc1ccccc1` (stereo not shown) [Compound No. 16, 3-[1-Oxo-2-((1-phenylmethyl)hydrazino)]ethyl-4-cyano thiazolidine trifluoroacetate], the IC50 was 9.29 ± 0.64 µM.
In the case of `N#CC1CSCN1C(=O)CN(N)Cc1ccc([N+](=O)[O-])cc1` (stereo not shown) [Compound No. 17, 3-[1-Oxo-2-((1-(4-nitrophenylmethyl))hydrazino)]ethyl-4-cyano thiazolidine trifluoroacetate], the IC50 is 35.8 ± 1.03 µM.
The figure for `N#CC1CCCN1C(=O)CN(N)C1CCCC1` (stereo not shown) [Compound No. 18, 1-[1-Oxo-2-((1-Cyclopentyl)-hydrazino)]ethyl-2-cyano pyrrolidine trifluoroacetate] is 32.1 ± 1.65 µM; for `N#CC1CCCN1C(=O)CN(N)C1CCCCC1` (stereo not shown) [Compound No. 20, 1-[1-Oxo-2-((1-Cyclohexyl)-hydrazino)]ethyl-2-cyano pyrrolidine trifluoroacetate] it is 33.7 ± 0.99 µM.
The figure for `CCC(C)N(N)CC(=O)N1CCCC1C#N` (stereo not shown) [Compound No. 22, 1-[1-Oxo-2-((1-methylpropyl)hydrazino)]ethyl-2-cyano pyrrolidine trifluoroacetate] is 76.5 ± 7.51 µM.
As for `CCC(C)N(N)CC(=O)N1CSCC1C#N` (stereo not shown) [Compound No. 23, 3-[1-Oxo-2-((1-methylpropyl)hydrazino)]ethyl-4-cyano thiazolidine trifluoroacetate], the IC50 stood at 2.94 ± 0.15 µM.
As for `CC1CCC(NNCC(=O)N2CCCC2C#N)CC1` (stereo not shown) [Compound No. 26, 1-[1-Oxo-2-((4-Methyl)cyclohexyl)hydrazino)]ethyl-2-cyano pyrrolidine trifluoroacetate], the IC50 was found to be 10 ± 0.79 µM.
The figure for `N#CC1CCCN1C(=O)CN(N)c1ccccn1` (stereo not shown) [Compound No. 27, 1-[1-Oxo-2-(1-(2-Pyridyl)-hydrazino)]ethyl-2-cyano pyrrolidine bis-trifluoroacetate] is 43 ± 2.76 µM; for `N#CC1CSCN1C(=O)CN(N)C1CCCCCC1` (stereo not shown) [Compound No. 28, 3-[1-Oxo-2-((1-Cycloheptyl)-hydrazino)] ethyl-4-cyano thiazolidine trifluoroacetate] it is 2.29 ± 0.11 µM.
The figure for `N#CC1CCCN1C(=O)CN(N)C1CCCCCC1` (stereo not shown) [Compound No. 30, 1-[1-Oxo-2-((1-Cycloheptyl)-hydrazino)]ethyl-2-cyano pyrrolidine trifluoroacetate] is 35.1 ± 2.66 µM.
The figure for `N#CC1CCCN1C(=O)CNNC1CCCCC1` (stereo not shown) [Compound No. 34, 1-[1-Oxo-2-(2-cyclohexyl) hydrazino] ethyl-2-cyanopyrrolidine trifluoroacetate] is 30.3 ± 5.5 µM.
As to `CC(C)NN(CC(=O)N1CSCC1C#N)C1CCCCC1` (stereo not shown) [Compound No. 36, 3-[1-Oxo-2-(1-cyclohexyl-2-isopropyl) hydrazino]ethyl-4-cyanothiazolidine hydrochloride], the IC50 was found to be 23.3 ± 2.54 µM.
Consider `CC1CCC(NNCC(=O)N2CCCC2C#N)CC1` (stereo not shown) [Compound No. 37, 1-[1-Oxo-2-(4-methylcyclohexyl)hydrazino]ethyl-2-cyanopyrrolidine trifluoroacetate], for which the 50% inhibitory concentration (IC50) came out at 28.3 ± 4.6 µM.
The figure for `CC(C)NN(CC(=O)N1CCCC1C#N)C1CCCCC1` (stereo not shown) [Compound No. 38, 1-[1-Oxo-2-(1-cyclohexyl-2-isopropyl)hydrazino]ethyl-2-cyano pyrrolidine] is 96.9 ± 23 µM; for `CC1CCC(CN(N)CC(=O)N2CCCC2C#N)CC1` (stereo not shown) [Compound No. 39, 1-[1-Oxo-2-(1-(4-methylcyclohexylmethyl)hydrazino)]ethyl-2-cyanopyrrolidine trifluoroacetate] it is 50.4 ± 4.59 µM.
The figure for `CC(C)N(N)CC(=O)N1CCCC1C#N` (stereo not shown) [Compound No. 41, 1-[1-Oxo-2-isopropyl-2-hydrazino]ethyl-2-cyano pyrrolidine trifluoroacetate] is 48.3 ± 1.75 µM.
The figure for `CCNN(CC(=O)N1CSCC1C#N)C1CCC(C)CC1` (stereo not shown) [Compound No. 42, 3-[1-Oxo-2-(1-(4-methylcyclohexyl)-2-ethyl)hydrazino]ethyl-4-cyanothiazolidine trifluoroacetate] is 0.53 ± 0.09 µM; for `N#CC1CSCN1C(=O)CN(N)C(=O)N1CCOCC1` (stereo not shown) [Compound No. 43, 3-[1-Oxo-2-(1-(4-morpholinocarbonyl) hydrazino)ethyl]-4-cyanothiazolidine trifluoroacetate] it is 38.2 ± 2.56 µM.
Regarding `CC1CCC(N(CC(=O)N2CSCC2C#N)NC(C)C)CC1` (stereo not shown) [Compound No. 44, 3-[1-Oxo-2-(1-(4-methylcyclohexyl)-2-isopropyl)hydrazino]ethyl-4-cyanothiazolidine trifluoroacetate], the IC50 came to 2.86 ± 0.18 µM.
On to `N#CC1CCCN1CC(=O)NN(CC(=O)N1CCCC1C#N)C1CCCCC1` (stereo not shown) [Compound No. 45, 1-[1-Oxo-2-[(1-cyclohexyl)-2-(2-cyano-1-pyrrolidinoacetyl)]hydrazino]ethyl-2-cyanopyrrolidine trifluoroacetate], for which the IC50 is 44 ± 1.92 µM.
The figure for `N#CC1CSCN1C(=O)CN(NC(=O)NCCc1ccccn1)C(=O)NCCc1ccccn1` (stereo not shown) [Compound No. 46, 3-[1-Oxo-2-(1,2-bis-(2-(2-pyridyl)ethylaminocarbonyl)hydrazino)]ethyl-4-cyano thiazolidine bis trifluoroacetate] is 78.6 ± 4.58 µM; for `CC(C)(C)C1CCC(N(N)CC(=O)N2CSCC2C#N)CC1` (stereo not shown) [Compound No. 47, 3-[1-Oxo-2-(1-(4-tert-butylcyclohexyl)hydrazino)]ethyl-4-cyanothiazolidine trifluoro acetate] it is 1.14 ± 0.09 µM; for `N#CC1CCCN1C(=O)CN(N)C1CCCc2ccccc21` (stereo not shown) [Compound No. 48, 1-[1-Oxo-2-(1-tetralinyl)hydrazino]ethyl-2-cyanopyrrolidine trifluoroacetate] it is 45.2 ± 1.21 µM.
The figure for `CC(C)(C)C1CCC(N(N)CC(=O)N2CSCC2C#N)CC1` (stereo not shown) [Compound No. 49, 3-[1-Oxo-2-(1-(4-tertbutylcyclohexyl)hydrazino)]ethyl-4-cyanothiazolidine trifluoroacetate] is 1.04 ± 0.25 µM; for `N#CC1CSCN1CC(=O)NN(CC(=O)N1CCCC1C#N)C1CCCCC1` (stereo not shown) [Compound No. 50] it is 60.1 ± 5.5 µM.
